EP4752152A1, “STEROID COMPOUND, AND PREPARATION METHOD THEREFOR AND USE THEREOF” (Cholesgen (Shanghai) Co.Ltd., priority 2023, dated 2025)
In brackets after ≈: the same amount, converted by molar mass. Where two headings read alike, the source gives them in different places.

Experiments:
[1] = Solubility in fasted-state simulated intestinal fluid (FaSSIF); format: physicochemical; settings: FaSSIF, pH 6.5, fassif, kinetic from dmso stock, FaSSIF pH 6.5, 300 µM sample solution, room temperature
Protocol: Compound powder was dissolved in DMSO to prepare a 10.0 mM stock solution for later use. 0.021 g NaOH, 0.198 g NaH2PO4, and 0.309 g NaCl were weighed and added to 50.0 mL of ultrapure water. After thorough mixing, the pH was adjusted to 6.5 using HCl or NaOH. Then, 0.112 g of FaSSIF powder was added. After complete dissolution, the solution was allowed to stand at room temperature for 2 hours for later use. A certain volume of the compound stock solution was added to a certain volume of FaSSIF to prepare a 300 µM sample solution, which was mixed at room temperature under 1000 rpm for 1 hour. After 1 hour, the sample was centrifuged, and a certain volume of supernatant was taken. The termination solution was added to precipitate the sample, which was then thoroughly mixed and centrifuged for 20 minutes. The supernatant was then taken again, diluted with dilution solution, and then analyzed by liquid chromatography-tandem mass spectrometry (LC-MS/MS). The concentration of the test compound in the samples was quantitatively determined using LC-MS/MS. Table 3: FaSSIF solubility results of compounds from some examples

SREBP pathway = assay: SREBP luciferase reporter gene system (SRE-luciferase assay); format: cell-based, human; settings: Huh-7/SRE-luc cells, sterol-deficient medium, 0.01-10 µM
How it was run: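 Huh-7 cells stably carrying LDLR promoter-luciferase plus GFP were treated 16 h in sterol-deficient medium (5% lipoprotein-deficient serum, 2 µM lovastatin, 10 µM mevalonic acid) at 0.01–10 µM. Luciferase/GFP ratio measured as pathway activity; inhibition versus DMSO fitted to a four-parameter model for IC50.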

[2] = test system: Fatty Acid Synthase (FASN) gene; assay: Inhibition of FASN gene expression (qPCR) in Huh-7 cells; format: cell-based, human; settings: Huh-7 cells, starvation medium, 16 hours, qPCR, class symbols, read-out: FASN IC50
How it was run: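 Huh-7 cells switched to starvation DMEM (5% LPDS, 2 µM lovastatin, 10 µM mevalonate) and treated 16 h with compound, top 3000 nM, 3-fold dilutions, 5 concentrations. FASN mRNA by RT-qPCR; inhibition relative to DMSO, IC50 from four-parameter fit.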

`C[C@H](CCCC(O)c1nccc2c1OC(F)(F)O2)[C@H]1CC[C@H]2[C@H]3[C@H](CC[C@]12C)[C@@]1(C)CC[C@H](O)[C@H](O)[C@@H]1CC3(F)F` (stereo partly drawn) [Compound 296, (1R,3aS,3bS,5aR,6R,7 S,9aR,9bS,11aR)-1-[(2R)-6-(2,2-Difluoro[1,3]dioxolo[4,5-c]pyridin-4-yl)-6-hydroxyhexan-2-yl]-4,4-difluoro-9a,11a-dimethylhexadecahydro-1H-cyclopenta[1,2-a]phenanthrene-6,7-diol] gave a solubility at 1 h [1] of 69.3 µM (≈ 40.6 µg/mL) and an IC50 (SREBP pathway; Homo sapiens, Huh-7, 16 h) of 0.226 µM.
For `C[C@H](CCCC(O)c1ccc(F)nc1OC1CC1)[C@H]1CC[C@H]2[C@H]3[C@H](CC[C@]12C)[C@@]1(C)CC[C@H](O)[C@H](O)[C@@H]1CC3(F)F` (stereo partly drawn) [Compound 328, (1R,3aS,3bS,5aR,6R,7S,9aR,9bS,11aR)-1-[(2R)-6-[2-(cyclopropyloxy)-6-fluoropyridin-3-yl]-6-hydroxyhexan-2-yl]-4,4-difluoro-9a,11a-dimethylhexadecahydro-1H-cyclopenta[1,2-a]phenanthrene-6,7-diol], the solubility at 1 h [1] was 263 µM (≈ 152 µg/mL) and the IC50 (SREBP pathway; Homo sapiens, Huh-7, 16 h) was 0.043 µM.
Work on `C[C@H](CCCC(O)c1ccccc1F)[C@H]1CC[C@H]2[C@H]3[C@H](CC[C@]12C)[C@@]1(C)CC[C@H](O)[C@H](O)[C@@H]1CC3(F)F` (stereo partly drawn) [Compound 3, (1R,3aS,3bS,5aR,6R,7S,9aR,9bS,11aR)-4,4-difluoro-1-[(2R)-6-(2-fluorophenyl)-6-hydroxyhexan-2-yl]-9a,11a-dimethylhexadecahydro-1H-cyclopenta[1,2-a]phenanthrene-6,7-diol] yielded a solubility at 1 h [1] of 247 µM (≈ 129 µg/mL) and an IC50 (SREBP pathway; Homo sapiens, Huh-7, 16 h) of 0.03 µM.
`C[C@H](CCCC(O)c1nccn1C)[C@H]1CC[C@H]2[C@H]3[C@H](CC[C@]12C)[C@@]1(C)CC[C@H](O)[C@H](O)[C@@H]1CC3(F)F` (stereo partly drawn) [Compound 223, (1R,3aS,3bS,5aR,6R,7 S,9aR,9bS,11aR)-4,4-Difluoro-1-[(2R)-6-hydroxy-6-(3-methylimidazol-2-yl)hexan-2-yl]-9a,11a-dimethylhexadecahydro-1H-cyclopenta[1,2-a]phenanthrene-6,7-diol] gave a solubility at 1 h [1] of 305 µM (≈ 155 µg/mL) and an IC50 (SREBP pathway; Homo sapiens, Huh-7, 16 h) of 0.093 µM.
Compound `C[C@H](CCCC(O)c1nc2ccccc2[nH]1)[C@H]1CC[C@H]2[C@H]3[C@H](CC[C@]12C)[C@@]1(C)CC[C@H](O)[C@H](O)[C@@H]1CC3(F)F` (stereo partly drawn) [Compound 303, (1R,3aS,3bS,5aR,6R,7 S,9aR,9bS,11aR)-4,4-Difluoro-1-[(2R)-6-hydroxy-6-(1H-benzo[d]imidazol-2-yl)hexan-2-yl]-9a,11a-dimethylhexadecahydro-1H-cyclopenta[1,2-a]phenanthrene-6,7-diol] has an IC50 ([2]; Homo sapiens, Huh-7, 16 h) of under 200 nM and an IC50 (SREBP pathway; Homo sapiens, Huh-7, 16 h) of 0.109 µM.
Compound `COc1cccc(F)c1C(O)CC[C@@H](C)[C@H]1CC[C@H]2[C@H]3[C@H](CC[C@]12C)[C@@]1(C)CC[C@H](O)[C@H](O)[C@@H]1CC3(F)F` (single isomer, unassigned) [Compound 336] has an IC50 ([2]; Homo sapiens, Huh-7, 16 h) of under 200 nM and an IC50 (SREBP pathway; Homo sapiens, Huh-7, 16 h) of 0.31 µM.
For `C[C@H](CCCC(O)c1ccc(F)cc1)[C@H]1CC[C@H]2[C@H]3[C@H](CC[C@]12C)[C@@]1(C)CC[C@H](O)[C@H](O)[C@@H]1CC3(F)F` (stereo partly drawn) [Compound 100, (1R,3aS,3bS,5aR,6R,7S,9aR,9bS,11aR)-4,4-difluoro-1-[(2R)-6-(4-fluorophenyl)-6-hydroxyhexan-2-yl]-9a,11a-dimethylhexadecahydro-1H-cyclopenta[1,2-a]phenanthrene-6,7-diol], the IC50 ([2]; Homo sapiens, Huh-7, 16 h) was 200 to 500 nM and the IC50 (SREBP pathway; Homo sapiens, Huh-7, 16 h) was 0.179 µM.
With `C[C@H](CCC[C@@H](O)c1nc2ccccc2n1C)[C@H]1CC[C@H]2[C@H]3[C@H](CC[C@]12C)[C@@]1(C)CC[C@H](O)[C@H](O)[C@@H]1CC3(F)F` [Compound 307, (1R,3aS,3bS,5aR,6R,7S,9aR,9bS,11aR)-4,4-difluoro-1-[(2R,6R)-6-hydroxy-6-(1-methylbenzo[d]imidazol-2-yl)hexan-2-yl]-9a,11a-dimethylhexadecahydro-1H-cyclopenta[1,2-a]phenanthrene-6,7-diol] the IC50 ([2]; Homo sapiens, Huh-7, 16 h) was under 200 nM and the IC50 (SREBP pathway; Homo sapiens, Huh-7, 16 h) was 0.054 µM.
`COc1ncccc1C(O)CCC[C@@H](C)[C@H]1CC[C@H]2[C@H]3[C@H](CC[C@]12C)[C@@]1(C)CC[C@H](O)[C@H](O)[C@@H]1CC3(F)F` (single isomer, unassigned) [Compound 192, (1R,3aS,3bS,5aR,6R,7S,9aR,9bS,11aR)-4,4-difluoro-1-[(2R,6S)-6-hydroxy-6-(^2-methoxypyridin-3-yl)hexan-2-yl]-9a,11a-dimethylhexadecahydro-1H-cyclopenta[1,2-a]phenanthrene-6,7-diol or (1R,3aS,3bS,5aR,6R,7S,9aR,9bS,11aR)-4,4-difluoro-1-[(2R,6R)-6-hydroxy-6-(2-methoxypyridin-3-yl)hexan-2-yl]-9a,11a-dimethylhexadecahydro-1H-cyclopenta[1,2-a]phenanthrene-6,7-diol] showed an IC50 ([2]; Homo sapiens, Huh-7, 16 h) of 200 to 500 nM and an IC50 (SREBP pathway; Homo sapiens, Huh-7, 16 h) of 0.053 µM.
`C[C@H](CCCC(O)c1cccc2cnn(C)c12)[C@H]1CC[C@H]2[C@H]3[C@H](CC[C@]12C)[C@@]1(C)CC[C@H](O)[C@H](O)[C@@H]1CC3(F)F` (single isomer, unassigned) [Compound 244, (1R,3aS,3bS,5aR,6R,7S,9aR,9bS,11aR)-4,4-difluoro-1-[(2R,6R)-6-hydroxy-6-(1-methylindazol-7-yl)hexan-2-yl]-9a,11a-dimethylhexadecahydro-1H-cyclopenta[1,2-a]phenanthrene-6,7-diol or (1R,3aS,3bS,5aR,6R,7S,9aR,9bS,11aR)-4,4-difluoro-1-[(2R,6S)-6-hydroxy-6-(1-methylindazol-7-yl)hexan-2-yl]-9a,11a-dimethylhexadecahydro-1H-cyclopenta[1,2-a]phenanthrene-6,7-diol] showed an IC50 ([2]; Homo sapiens, Huh-7, 16 h) of under 200 nM and an IC50 (SREBP pathway; 16 hours) of 0.06 µM.
`COc1nc(F)cc(F)c1[C@@H](O)CCC[C@@H](C)[C@H]1CC[C@H]2[C@H]3[C@H](CC[C@]12C)[C@@]1(C)CC[C@H](O)[C@H](O)[C@@H]1CC3(F)F` (single isomer, unassigned) [Compound 255] showed an IC50 ([2]; Homo sapiens, Huh-7, 16 h) of 200 to 500 nM and an IC50 (SREBP pathway; Homo sapiens, Huh-7, 16 h) of 0.107 µM.
With `C[C@H](CCCC(O)c1cccc2ncn(C)c12)[C@H]1CC[C@H]2[C@H]3[C@H](CC[C@]12C)[C@@]1(C)CC[C@H](O)[C@H](O)[C@@H]1CC3(F)F` (stereo partly drawn) [Compound 261, (1R,3aS,3bS,5aR,6R,7 S,9aR,9bS,11aR)-4,4-Difluoro-1-[(2R)-6-hydroxy-6-(3-methylbenzo[d]imidazol-4-yl)hexan-2-yl]-9a,11a-dimethylhexadecahyd ro-1H-cyclopenta[1,2-a]phenanthrene-6,7-diol] the IC50 ([2]; Homo sapiens, Huh-7, 16 h) was under 200 nM and the IC50 (SREBP pathway; Homo sapiens, Huh-7, 16 h) was 0.001 µM.
Work on `C[C@H](CCC[C@H](O)c1c(F)ccnc1F)[C@H]1CC[C@H]2[C@H]3[C@H](CC[C@]12C)[C@@]1(C)CC[C@H](O)[C@H](O)[C@@H]1CC3(F)F` (single isomer, unassigned) [Compound 233] yielded an IC50 ([2]; Homo sapiens, Huh-7, 16 h) of 200 to 500 nM and an IC50 (SREBP pathway; Homo sapiens, Huh-7, 16 h) of 0.106 µM.
With `COc1ccc(C(O)CCC[C@@H](C)[C@H]2CC[C@H]3[C@H]4[C@H](CC[C@]23C)[C@@]2(C)CC[C@H](O)[C@H](O)[C@@H]2CC4(F)F)c(OC)n1` (stereo partly drawn) [Compound 177, (1R,3aS,3bS,5aR,6R,7 S,9aR,9bS,11aR)-1-[(2R)-6-(2,6-Dimethoxypyridin-3-yl)-6-hydroxyhexan-2-yl]-4,4-difluoro-9a,11a-dimethylhexadecahydro-1H-cyclopenta[1,2-a]phenanthrene-6,7-diol] the IC50 ([2]; Homo sapiens, Huh-7, 16 h) was under 200 nM and the IC50 (SREBP pathway; Homo sapiens, Huh-7, 16 h) was 0.186 µM.
`C[C@H](CCCC(O)c1cccnc1)[C@H]1CC[C@H]2[C@H]3[C@H](CC[C@]12C)[C@@]1(C)CC[C@H](O)[C@H](O)[C@@H]1CC3(F)F` (stereo partly drawn) [Compound 54, (1R,3aS,3bS,5aR,6R,7S,9aR,9bS,11aR)-4,4-difluoro-1-[(2R)-6-hydroxy-6-(pyridin-3-yl)hexan-2-yl]-9a,11a-dimethylhexadecahydro-1H-cyclopenta[1,2-a]phenanthrene-6,7-diol] gave an IC50 ([2]; Homo sapiens, Huh-7, 16 h) of 200 to 500 nM and an IC50 (SREBP pathway; Homo sapiens, Huh-7, 16 h) of 0.35 µM.
For `COc1cccc(F)c1C(O)CCC[C@@H](C)[C@H]1CC[C@H]2[C@H]3[C@H](CC[C@]12C)[C@@]1(C)CC[C@H](O)C[C@@H]1CC3(F)F` (single isomer, unassigned) [Compound 314], the IC50 ([2]; Homo sapiens, Huh-7, 16 h) was 500 to 900 nM and the IC50 (SREBP pathway; Homo sapiens, Huh-7, 16 h) was 0.14 µM.
For `C[C@H](CCCC(O)c1ccc2c(n1)OC(F)(F)O2)[C@H]1CC[C@H]2[C@H]3[C@H](CC[C@]12C)[C@@]1(C)CC[C@H](O)[C@H](O)[C@@H]1CC3(F)F` (single isomer, unassigned) [Compound 266], the IC50 [2] was under 200 nM and the IC50 (SREBP pathway; 16 hours) was 0.099 µM.
`COc1nc(F)ccc1C(O)CCC[C@@H](C)[C@H]1CC[C@H]2[C@H]3[C@H](CC[C@]12C)[C@@]1(C)CC[C@H](O)C[C@@H]1CC3(F)F` (stereo partly drawn) [Compound 301, (1R,3aS,3bR,5aR,7S,9aS,9bS,11aR)-4,4-difluoro-1-[(2R)-6-(6-fluoro-2-methoxypyridin-3-yl)-6-hydroxyhexan-2-yl]-9a,11a-dimethylhexadecahydro-1H-cyclopenta[1,2-a]phenanthren-7-ol] showed an IC50 ([2]; Homo sapiens, Huh-7, 16 h) of 200 to 500 nM and an IC50 (SREBP pathway; Homo sapiens, Huh-7, 16 h) of 0.076 µM.
